Source: patent US20250346938A1, “ATP-DEPENDENT C-TERMINAL MODIFICATION OF POLYPEPTIDES” (Wisconsin Alumni Research Foundation, priority 2024, published 2025)

Legend:
M ccB [1] = experiment: One-pot expressed protein ligation of GFP-TeCH with N-terminal Cys peptide CGAGS-azidoAla; format: biochemical, E. coli; conditions: MccB, ATP, Mesna
M ccB [2] = experiment: MccB-catalyzed C-terminal thioesterification / Cys ligation of TeCH-tag fusion proteins (intact protein LC-MS); format: biochemical, E. coli
Description: M ccB-mediated ligation of GFP-MccA-N7G protein substrates. GFP-M ccA-N7G variant (50 μM) was incubated with 5 μM MccB, 5 mM ATP, and the appropriate concentration of cysteine or Mesna/TCEP in reaction buffer (25 mM Tris pH 8.0, 10 mM M gCl2). Reactions were incubated at room temperature for the indicated times. For labeling time course experiments, reactions were quenched with the addition of an equivalent volume of 0.6% TFA.

LjM ccB = experiment: C-terminal thioesterification of MccA-N7G peptides by L. johnsonii MccB (LC-MS); format: biochemical; conditions: LjMccB, ATP, Mesna, within 16 h
Ubc9 = molecular target: T1, Ubc9 (Homo sapiens, UniProt P63279); experiment: Ubc9-catalyzed lysine acylation (LACE) of GFP-LACE-tag with MccB-generated thioesters; format: biochemical
T1 construct: Ubc9; Calc: 20,632 Da (M et loss); Observed: 20,632 Da, 20,810 Da (N-gluconylation); made in house; host or cells: E. coli BL21 (DE3)
Description: For larger scale synthesis of MLGLRGG-Mes (HsLACE3-M es) (SEQ ID NO: 88), identical reaction conditions and reagent concentrations were used in a volume of […]. Reactions were quenched by addition of trifluoroacetic acid (TFA) to 1% final concentration and were desalted on SOLA HRP C18 solid-phase extraction columns (10 mg format, Thermo Fisher Scientific). Columns were conditioned with 100% acetonitrile ([…]) and equilibrated with 0.1% TFA (2× 1 mL). The acidified sample was then loaded onto the column. The column was washed with 0.1% TFA (2×1 mL) and eluted with 80% acetonitrile/20% water ([…]). The eluted peptide thioester was dried in a vacuum concentrator (SpeedV ac SPD 130DLX, Thermo Fisher Scientific) and dissolved in water. The recovered peptide was quantified using the Pierce Quantitative Fluorometric Peptide A ssay Kit (Thermo Fisher Scientific). Typical recovery from desalting was 50%.
Lysine acylation using conjugating enzymes (LACE) of GFP-LACE-tag using M ccB-generated thioesters. GFP-LACE-tag ([…]), U bc9 ([…]), MLGLRGG-Mes (SEQ ID NO: 88) or other C-terminal thioesters as indicated in the text ([…]) were incubated in reaction buffer (100 mM HEPES, pH 8.0, 50 mM K CI) at 30° C. for 16 h. For pH optimization, reaction buffer was either 100 mM HEPES, pH 7.6, 50 mM KCl or 100 mM HEPES, pH 8.0, 50 mM KCl. […]

M ccB [3] = experiment: MccB-catalyzed native chemical ligation of MccA-N7G with Mesna and Cys-Trp; format: biochemical, E. coli; conditions: both Mesna and Cys-Trp in the reaction, 4 hours
Description: MccA-N7G thioester exchange with N-terminal Cys peptide. C-terminal thioester was prepared in reactions containing 250 μM MccA-N7G, 5 μM MccB, 5 mM ATP, and 5 mM Mesna/TCEP in reaction buffer (25 mM Tris pH 8.0, 10 mM M gCl2). A fter incubating for 16 hours at room temperature, 20 mM Cys-Trp peptide was added to each reaction and incubated for an additional 4 hours. Reactions were quenched with the addition of an equivalent volume of 0.6% TFA.

E. coli M ccB [4] = experiment: LC-TOF MS analysis of MccB-catalyzed AMPylation of MccA variants; format: biochemical; conditions: HPLC-MS assay
Description: LC-TOF MS analysis of M ccB reactions with synthetic peptide substrates. […] Reactions were incubated for 16 hours at room temperature and quenched with addition of an equivalent volume of 0.6% TFA. These reaction conditions were used for M ccBs from E. coli, H. pylori, L. johnsonii, and H. somni.
LC-TOF MS analysis of M ccB-catalyzed N-AM Pylation of M ccA positional scanning peptide library. MccA variants were synthesized individually in-house (according to Solid-phase peptide synthesis) or were purchased from Peptide2.0. […] Reactions were incubated for 16 hours at room temperature and quenched with addition of an equivalent volume of 0.6% TFA. […] Percent conversion was calculated using peak areas from substrate and product EICs. Raw data are available in the Dryad repository at DOI: 10.5061/dryad.c59zw3rkb.

E. coli M ccB [5] = experiment: Enzyme-coupled pyrophosphate (PPi) release assay, E. coli MccB; format: biochemical
Excerpt: FIG. 31. Enzyme-coupled pyrophosphate assay for detection of M ccB-catalyzed pyrophosphate release. M ccB-catalyzes release of pyrophosphate, which is converted to phosphate by inorganic pyrophosphatase (PPiase). Purine nucleoside phosphorylase (PN Pase) uses phosphate as a substrate to convert 2-amino-6-mercapto-7-methylpurine ribonucleoside (M ESG) to ribose 1-phosphate and 2-amino-6-mercapto-7-methylpurine, which absorbs at 360 nm.
Purine nucleoside phosphorylase (PNP)/inorganic pyrophosphate (IP)-coupled kinetic assays. The kinetics of M ccB-catalyzed adenylation were characterized using an enzyme-coupled assay for detecting formation of pyrophosphate EnzCheck Pyrophosphate Assay Kit (Thermo Fisher Scientific) (FIG. 31). To screen M ccB for adenylation activity with C-terminal variants of MccA, 5 μM of the appropriate MccB variant was incubated with 0.25 mM of each M ccA variant in a reaction with 0.25 mM ATP, 5 mM M gCl2, 0.5 U/mL purine nucleoside phosphorylase (PNP), and 0.5 U/mL inorganic pyrophosphatase (IP). To screen E. coli, H. pylori, and L. johnsonii M ccB homologs for adenylation activity with MccA homologs, 5 μM of the appropriate MccB enzyme was incubated with 0.25 mM of each M ccA variant in a reaction with 0.25 mM ATP, 5 mM M gCI2, 0.5 U/mL purine nucleoside phosphorylase (PNP), and 0.5 U/mL inorganic pyrophosphatase (IP). Reactions containing HpM ccA-N7G and LjM ccA-N 7G peptides also contained 5 mM M esna and 5 mM TCEP. To collect steady-state kinetics data for individual peptide substrates, the peptide concentration was varied from 0-600 μM in a reaction with 5 μM MccB, 0.25 mM ATP, 5 mM MgCl2, 0.5 U/mL purine nucleoside phosphorylase (PNP), and 0.5 U/mL inorganic pyrophosphatase (IP). […] We therefore repeated measurements for the MccA-N7G peptide using an MccB concentration of […] and a substrate concentration range from 0-100 μM. Reactions were initiated with the addition of M ccB and absorbance at 360 nm was monitored using a Tecan Infinite M 200 plate reader. Initial rates of pyrophosphate production were calculated based on the initial rate of absorbance change and the resulting purine analog extinction coefficient (11,000 M-1 cm-1). Reactions were carried out in triplicate and data analysis was performed using GraphPad Prism 10.

[6] = molecular target: T2, MccA-N7G (E. coli TeCH-tag peptide MRTGNAG)
T2 chain: MRTGNAG

T1 sequence (P63279 with tags, fused parts or gaps): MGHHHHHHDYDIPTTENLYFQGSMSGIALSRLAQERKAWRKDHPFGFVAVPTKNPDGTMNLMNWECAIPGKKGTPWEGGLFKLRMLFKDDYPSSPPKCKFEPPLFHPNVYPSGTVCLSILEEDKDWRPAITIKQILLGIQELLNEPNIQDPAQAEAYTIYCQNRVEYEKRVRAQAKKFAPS
LjM ccB, sequence (as listed by the source): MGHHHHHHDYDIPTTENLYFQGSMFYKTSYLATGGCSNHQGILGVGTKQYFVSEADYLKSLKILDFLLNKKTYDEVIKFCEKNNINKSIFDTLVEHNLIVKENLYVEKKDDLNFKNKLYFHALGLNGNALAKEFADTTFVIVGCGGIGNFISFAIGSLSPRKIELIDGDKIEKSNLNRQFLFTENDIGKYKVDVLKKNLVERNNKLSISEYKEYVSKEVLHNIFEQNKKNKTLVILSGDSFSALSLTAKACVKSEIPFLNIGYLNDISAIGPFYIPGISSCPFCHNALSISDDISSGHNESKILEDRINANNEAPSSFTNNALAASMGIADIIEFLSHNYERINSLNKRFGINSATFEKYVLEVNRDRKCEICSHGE

With “GFP-TeCH-tag: Cys-free GFP fused to MccA-N7G TeCH-tag (SEQ ID NO: 73)” the “modification with azide-bearing peptide CGAGS-3-azido-Ala” value (M ccB [1]) was “quantitatively modified”, the “conversion to the Mesna thioester” value (M ccB [2]; 5 mM Mesna, 5 mM ATP, 30 min) was “near-quantitative” and the Cys ligation yield (M ccB [2]; ATP (5 mM), Cys (5 mM), 1 h) was 99%. The “time to complete conversion to thioester” value (M ccB [2]; ATP (5 mM), Mesna (5 mM)) was 1 h.

MHRIM KG (MHRIMKG) [LjM ccA-N7G] was tested, and the “conversion to C-terminal thioester, yield” value (LjM ccB) was > 97%.

“MLGLRGG (listed as Histophilus somni) [HsLACE3]” was tested, and the “modification of the LACE-tagged protein” value (Ubc9; HsMccB-generated thioester after C18 spin column thiol removal) was 94% and the “conversion to modified GFP-LACE” value (Ubc9; one-pot and telescoped HsMccB/Ubc9 reactions) was 1-15%.

MRTGNAG [MccA-N7G] was tested, and the “conversion to MccA-N7G-CW, yield” value (M ccB [3]) was 82%, the “formation of stably AMPylated product” value (E. coli M ccB [4]) was “no stably A M Pylated product was observed” and the “stimulation of PPi formation” value (E. coli M ccB [5]; MccA C-terminal variant as substrate for MccB) was “substantial stimulation”. It also gave a Km (E. coli M ccB [5]; initial fitting, 5 μM MccB, peptide 0-600 μM, pyrophosphate release, read-out: apparent KM) of 8.9 µM.

B1: E. coli MccB (protein)
chain: MGHHHHHHDYDIPTTENLYFQGSMDYILGRYVKIARYGSGGLVGGGGKEQYVEDLALWENIIKTAYCFITPSSYTAALETVNIPEKDFSNCFRFLKENFFIIPSEYNNSTENNRYSRNFLHYQSYGANPVLVQDKLKDAKVVILGCGGIGNHVSVILATSGIGEIILIDNDQIENTNLTRQVLFSENDVGKNKTEVIKRELLKRNSEISVSEIALNINDYTDLHKVPEADIWVVSADHPFNLINWVNKYCVRANQPYINAGYVNDIAVFGPLYVPGKTGCYECQKVVADLYGSEKENIDHKIKLINSRFKPATFAPVNNVAAALCAADVIKFIGKYSEPLSLNKRIGIWSDEIKIHSQNMGRSPVCSVCGNRM
For B1, the “apparent KM, enzyme-coupled pyrophosphate release assay (steady-state kinetics)” value [6] was 8.9 ± 0.9 µM.
